In one assay the target is T1, KV4.3 (Ito) (Canis lupus familiaris, UniProt A0A8I3NA05).
T1 sequence (A0A8I3NA05 1-655): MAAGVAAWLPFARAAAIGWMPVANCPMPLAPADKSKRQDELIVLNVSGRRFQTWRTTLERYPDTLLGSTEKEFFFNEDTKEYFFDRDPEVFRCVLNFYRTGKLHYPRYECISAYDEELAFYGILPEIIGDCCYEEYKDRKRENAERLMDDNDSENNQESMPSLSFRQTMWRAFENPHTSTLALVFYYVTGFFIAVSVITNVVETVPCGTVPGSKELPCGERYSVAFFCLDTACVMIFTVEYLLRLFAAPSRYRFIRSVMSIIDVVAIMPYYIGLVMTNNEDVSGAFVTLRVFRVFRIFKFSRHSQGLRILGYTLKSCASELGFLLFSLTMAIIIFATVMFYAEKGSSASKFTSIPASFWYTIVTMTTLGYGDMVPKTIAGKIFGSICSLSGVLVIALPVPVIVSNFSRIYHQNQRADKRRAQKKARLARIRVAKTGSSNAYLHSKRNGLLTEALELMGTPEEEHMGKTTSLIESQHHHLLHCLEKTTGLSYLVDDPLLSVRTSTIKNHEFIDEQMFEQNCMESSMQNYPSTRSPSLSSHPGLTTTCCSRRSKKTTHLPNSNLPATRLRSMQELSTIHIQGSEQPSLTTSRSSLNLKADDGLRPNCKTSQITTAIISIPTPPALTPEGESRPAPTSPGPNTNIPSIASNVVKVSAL
Put plainly: Whole-cell patch clamp of Ito in dissociated canine ventricular epicardial myocytes. Format: cell-based. How it is done:
Single myocytes were isolated from coronary-perfused canine right or left ventricular wedge preparations via enzymatic dissociation. Briefly, the wedge preparations were coronary perfused with nominally Ca^+2-free Tyrode's solution for a period of 15 min. They were then subjected to enzymatic digestion in nominally Ca^2+-free solution supplemented with 0.6 mg/ml collagenase (type II; Worthington) and 0.075 mg/ml protease (type XIV; Sigma) for 25-35 min. The wedge preparation was then perfused for 15 min with a taurine buffer solution containing (in mM): 108 NaCl, 10 HEPES, 11 D-glucose, 4 KCl, 1.2 MgSO4, 1.2 NaH2PO4, 50 taurine and 0.025 CaCl2. pH was adjusted to 7.4 using NaOH. After perfusion, thin slices of tissue were cut from the epicardial surface to obtain single epicardial cells as previously described.^6
Ito and APs were measured in isolated RV or LV myocytes. APs were measured in the current-clamp mode in the whole-cell configuration. APs were initiated using intracellular current injection and recorded continuously by means of Clampex software (Axon Instruments/Molecular Devices) at a sampling frequency of […]. Ito was measured using the Axopatch 200B-2 amplifier in V-Clamp mode.
Ito was recorded in isolated ventricular epicardial cells at 37° C. using whole-cell patch clamp techniques. Ito was elicited using a series of 350 ms voltage steps between −50 mV and +40 mV from a holding potential of −90 mV. A 15 ms prepulse to −20 mV was used to discharge the sodium current. Interpulse interval was 50 ms. The amplitude of Ito was determined by subtracting […] at the end of the pulse. The total charge carried by Ito was determined by calculating the area under the Ito current waveform. The extracellular solution contained (in mM): 140 NaCl, 4 KCl, 1.8 CaCl2, 1.2 MgCl2, 10 HEPES, and 10 glucose, pH 7.4 (adjusted with NaOH). The intracellular solution contained (in mM): 120 KCl, 1.5 MgCl2, 10 HEPES, 0.5 EGTA, 0.01 CaCl2, 5 MgATP, pH 7.2 (adjusted with NaOH). Following baseline measurements, recordings was repeated during exposure to AR-787.
(In general: Patch clamp records ionic current or voltage across a cell membrane.)

Assay [1] relates to coronary-perfused canine right (RV) and left (LV) ventricular wedge models of JWS. Description: Coronary-perfused ventricular wedge models of the J wave syndromes (NS5806 alone or with verapamil). More on the design: QT interval / T wave amplitude / Epi (APD50) / Epi (APD90): unit not given here. How it is done: Ten hearts from purpose-bred adult male mongrel dogs (20-22 kg) were acquired from Covance (Denver, PA) and another 10 hearts from purpose-bred adult male Beagle dogs (10-16 kg) were obtained from Envigo (Denver, PA). Dogs were sedated with ketamine (10 mg/kg, IM) and xylazine 2 (mg/kg, IM). Prior to euthanasia (Euthasol solution: pentobarbital sodium and phenytoin sodium; 0.22 ml/kg, IV), and heparin (human pharmaceutical grade, 1,000 U/kg, IV) were administered 3-4 min before isolation of the hearts via a left thoracotomy. Retrograde aortic perfusion of the hearts with ice-cold cardioplegic solution (modified K-H solution; 16 mM KCl) was immediately performed to rinse the coronary vasculature of blood. The hearts were then placed in a sealed container containing ice-cold cardioplegic solution and transported to our institution via private courier in an insulated package filled with icepacks.
Transmural wedges were dissected from the base of the RV and LV. During the cannulation procedure, preparations were initially arterially perfused with cardioplegic solution. Next, the wedge preparations were placed in a tissue bath and perfused with a modified Krebs-Henseleit solution (K—H) bubbled with 95% O2/5% CO2 warmed to 37° C. The composition of K—H was (in mM): 118 NaCl, 4 KCl, 2 CaCl2, 1.2 MgSO4, 24 NaHCO3, 1.2 NaH2PO4, 2 Na Pyruvate and 10 D-Glucose. The perfusate was delivered at a constant pressure (45-50 mmHg). A transmural pseudo-ECG (ECG) was recorded using two Ag/AgCl half cells placed at ˜1 cm from the Epi (+) and Endo (−) surfaces along the same axis as the transmembrane action potential (AP) recordings. APs were simultaneously recorded from the immediate sub-Epi and M cell region (˜2-3 mm from the Endo surface) using floating glass microelectrodes. Pacing was applied to the Endo surface using bipolar silver electrodes insulated except at the tips (Basic Cycle Lengths [BCLs]: 500-2,000 ms). A detailed description of the arterially-perfused ventricular wedge preparation has been previously published.^5 ECG and AP signals were digitized and analyzed using Spike 2 for Windows (Cambridge Electronic Design, Cambridge, UK).
We used the Ito-agonist NS5806 (5-10 μM) alone or with the calcium-channel blocker verapamil (2.5 μM) to pharmacologically mimic the effects of the ion channel genetic defects underlying ERS and BrS. These provocative agents were added to the coronary perfusate in increasing concentrations until the characteristic ECG phenotypes were unmasked, including phase 2 reentry (P2R), closely coupled premature beats (CCPBs) and/or pVT/VF. AR-787 was added to the perfusate to test its ability to suppress or prevent arrhythmogenesis.

Where [2] appears, read: AR-787 10 μM following NS5806 5-10 μM, 3 LV wedges, BCL 800 msec.

Usually IC50 stands for the concentration that inhibits the measured activity by half. Regarding `Cc1nc(-n2cccc2)sc1C(=O)N=c1[nH]c2ccccc2[nH]1` [AR-787, N-(1H-benzimidazol-2-yl)-4-methyl-2-pyrrol-1-yl-thiazole-5-carboxamide], the inhibition at 1 µM on KV4.3 (Ito) (1 μM, at +20 mV, 37° C., read-out: reduction of Ito density) came to 34%. For the same compound, the inhibition at 10 µM on KV4.3 (Ito) (10 μM, at +20 mV, 37° C., read-out: reduction of Ito density) amounted to 68%. The inhibition at 50 µM on KV4.3 (Ito) (50 μM, at +20 mV, 37° C., read-out: reduction of Ito density) was found to be 85.2%. At KV4.3 (Ito) (estimated, read-out: IC50 for Ito inhibition), the IC50 was roughly 8 µM. In addition, the “effect on NS5806-induced J wave syndrome phenotype” value in assay [1] (AR-787 10 μM after NS5806 5-10 μM) was “reversed these effects induced by NS5806”. Moreover, in assay [1] (setting [2]), the “Epi (APD50)” value was 173.9 ± 7.8, the “Epi (APD90)” value came to 209.0 ± 8.1, the J wave amplitude was found to be 8.7 ± 5.7 and the “M (APD50)” value is given as 179.0 ± 11.4. In assay [1] (setting [2]), the “M (APD90)” value worked out at 235.0 ± 11.1, the “Ph1 mag (% Ph0)” value is recorded as 25.4 ± 4.9 % Ph0, the QT interval was 254.3 ± 10.0 and the T wave amplitude came to 19.0 ± 1.8. Further, the “manifestation of AP notch and ECG J wave” value in assay [1] (AR-787 1, 10 and 50 μM after NS5806 10 μM, LV and RV wedges) is “concentration-dependent diminution in the manifestation of the AP notch and associated ECG J wave”. The QT interval entry in assay [1] (AR-787 1, 10 or 50 μM, NS5806 5-10 μM, five wedges) is on record as “unaffected”. The “effect on NS5806-augmented Epi Ph1 magnitude and J wave amplitude” value in assay [1] (AR-787 1, 10 or 50 μM, NS5806 5-10 μM, five wedges (4 LV and 1 RV)) is listed as “readily reversed the effect of NS5806”. Moreover, the “ECG and arrhythmic manifestations (extrasystole, polymorphic VT) in ERS model” value in assay [1] (LV wedge, NS5806 10 μM and verapamil 2.5 μM, AR-787 10 μM, 30 min) was “reduced Phase 1 magnitude, restored the AP dome and totally suppressed all arrhythmic activity”. Besides, the “restoration of AP dome and suppression of Phase 2 reentry extrasystoles” value in assay [1] (RV wedge, 40 min NS5806 10 μM, AR-787 50 μM but not 10 μM) is “effective in fully restoring the AP dome and in totally suppressing this arrhythmic activity”.

Values taken from patent publication US20250228824A1, “COMPOSITIONS AND METHODS FOR INHIBITION OF ITO AS TREATMENT FOR THE J WAVE SYNDROMES AND HYPOTHERMIA” (Lankenau Institute for Medical Research, priority 2021, published 2025).
